Patent US10472395B2, “Cyclic peptide analogs and conjugates thereof” (Sirenas LLC, priority 2015, dated 2019)
Read-outs that look alike come from different tables or passages of the source. Numbered stars: 1 amine (or outer) side, 2 acyl side, 3 side chain; on linkers, the order of the positions; unused ones are H or OH. Bridge positions count the residues as written; N and C are the ends. Square brackets hold non-standard residues; d marks the D form. Peptide text beside a SMILES is read from it. ξ: configuration not given here. X6 = C/C=C(\C)[C@@H](O[*:2])[C@@H](C)[C@H](C/C=C(\C)C(=O)[*:1])OCSC; X3 = C/C=C(\C)[C@@H](O[*:2])[C@@H](C)[C@@H](O)C/C=C(\C)C(=O)[*:1]; X10 = C/C(=C\CCCCO[*:2])C(=O)[*:1]; aIle = CC[C@@H](C)[C@H](N)C(=O)O; dNMeF = CN[C@H](Cc1ccccc1)C(=O)O; Ile(3ξ) = CCC(C)[C@H](N)C(=O)O; dHica = CC(C)C[C@@H](O)C(=O)O; dHiv = CC(C)[C@@H](O)C(=O)O; dAbu = CC[C@@H](N)C(=O)O; Abu = CC[C@H](N)C(=O)O; Aib = CC(C)(N)C(=O)O; Sar = CNCC(=O)O

How the values were obtained:
[1] = tested on: BT-474 human mammary gland ductal carcinoma cells; assay: Inhibitory response of test compounds against BT-474 cells (Cell Titer-Glo, 72 h); format: cell-based
Experimental: (§1) BT-474 human mammary gland ductal carcinoma cells were seeded in a clear polystyrene 96-well microculture plate (Corning® Costar® 96-well flat bottom plate, Cat.#3997) in a total volume of 90 μL/well. After 24 hours of incubation in a humidified incubator at 37° C. with 5% CO2 and 95% air, 10 μL of 10×, serially diluted test agents in growth medium were added to each well (10 pt dose response curve, highest concentration 10 μM of test agent). After 72 hours of culture in a humidified incubator at 37° C., in an atmosphere of 5% CO2 and 95% air, the plated cells and Cell Titer-Glo® (Promega G7571) reagents were brought to room temperature to equilibrate for 30 minutes. 100 μL of Cell Titer-Glo® reagent was added to each well. The plate was shaken for two minutes and then left to equilibrate for ten minutes. The media/Cell Titer-Glo® reagent was transferred to a white polystyrene 96-well microculture plate (Corning® Costar® 96-well flat bottom plate, Cat.#3917) before reading luminescence on a Tecan GENios microplate reader.
(§2) Percent inhibition of cell growth was calculated relative to untreated control wells. The IC50 value for the test agents was determined using Prism 6.05 by curve-fitting of the data using the following four parameter-logistic equation:
(§3) [formula] where Top is the maximal % of control absorbance, Bottom is the minimal % of control absorbance at the highest agent concentration, Y is the % of control absorbance, X is the agent concentration, IC50 is the concentration of agent that inhibits cell growth by 50% compared to the control cells, and n is the slope of the curve.

HCC1954 cells = assay: Inhibitory response of test compounds against HCC1954 cells (method analogous to BT-474); format: cell-based; settings: Homo sapiens
Experimental: as §1, §2, §3
Inhibitory response of test compounds against HCC1954 cells was determined using a method analogous to that used for BT-474 cells.

SMILES	IC50 ([1]; Homo sapiens) [nM]	IC50 (HCC1954 cells) [nM]	IC50 [1] [nM]
C/C=C(\C)[C@H]1OC(=O)[C@@H](C)NC(=O)[C@H](C(C)CC)NC(=O)CN(C)C(=O)[C@@H](Cc2ccccc2)N(C)C(=O)[C@H](C)NC(=O)[C@@H](CC(C)C)NC(=O)/C(C)=C/C[C@H](O)[C@@H]1C (stereo partly drawn) [Compound 63] ([dL]A[dNMeF][Sar][Ile(3ξ)][dA]; linker N-C via X3)	< 20	20 to 200	–
C/C=C(\C)[C@H]1OC(=O)[C@@H](C)NC(=O)[C@H](C(C)CC)NC(=O)CN(C)C(=O)[C@@H](Cc2ccccc2)N(C)C(=O)[C@H](C)NC(=O)[C@@H](Cc2ccccc2)NC(=O)/C(C)=C/C[C@H](O)[C@@H]1C (stereo partly drawn) [Compound 64] ([dF]A[dNMeF][Sar][Ile(3ξ)][dA]; linker N-C via X3)	< 20	20 to 200	–
C/C=C(\C)[C@H]1OC(=O)[C@@H](C)NC(=O)[C@H](C(C)CC)NC(=O)CN(C)C(=O)[C@@H](Cc2ccccc2)N(C)C(=O)[C@H](C)NC(=O)[C@@H](CC(C)C)OC(=O)/C(C)=C/C=C/[C@@H]1C (stereo partly drawn) [Compound 69]	< 20	< 20	–
C/C=C(\C)[C@H]1OC(=O)[C@@H](C)NC(=O)[C@H]([C@H](C)CC)NC(=O)CN(C)C(=O)[C@@H](Cc2ccccc2)N(C)C(=O)[C@H](C)NC(=O)[C@@H](CC(C)C)OC(=O)/C(C)=C/C[C@H](OC(=O)N(C)CCNC)[C@@H]1C [Compound 75]	< 20	< 20	–
CCC(C)[C@@H]1NC(=O)CN(C)C(=O)[C@@H](Cc2ccccc2)N(C)C(=O)[C@H](C)NC(=O)[C@@H](CC(C)C)OC(=O)/C(C)=C/CCCCOC(=O)[C@@H](CC)NC1=O (stereo partly drawn) [Compound 77] ([dHica]A[dNMeF][Sar][Ile(3ξ)][dAbu]; linker N-C via X10)	> 10000	–	–
CCC(C)[C@@H]1NC(=O)CN(C)C(=O)[C@@H](Cc2ccccc2)N(C)C(=O)[C@H](C)NC(=O)[C@@H](CC(C)C)OC(=O)/C(C)=C/CCCCOC(=O)[C@H](CC)NC1=O (stereo partly drawn) [Compound 78] ([dHica]A[dNMeF][Sar][Ile(3ξ)][Abu]; linker N-C via X10)	200 to 10000	–	–
CCC(C)[C@@H]1NC(=O)CN(C)C(=O)[C@@H](Cc2ccccc2)N(C)C(=O)[C@H](C)NC(=O)[C@@H](CC(C)C)OC(=O)/C(C)=C/CCCCOC(=O)CNC1=O (stereo partly drawn) [Compound 79] ([dHica]A[dNMeF][Sar][Ile(3ξ)]G; linker N-C via X10)	> 10000	–	–
CCC(C)[C@@H]1NC(=O)CN(C)C(=O)[C@@H](Cc2ccccc2)N(C)C(=O)[C@H](C)NC(=O)[C@@H](C(C)C)OC(=O)/C(C)=C/CCCCOC(=O)[C@@H](CC)NC1=O (stereo partly drawn) [Compound 80] ([dHiv]A[dNMeF][Sar][Ile(3ξ)][dAbu]; linker N-C via X10)	> 10000	–	–
CCC(C)[C@@H]1NC(=O)CN(C)C(=O)[C@@H](Cc2ccccc2)N(C)C(=O)[C@H](C)NC(=O)[C@@H](C(C)C)OC(=O)/C(C)=C/CCCCOC(=O)C(C)(C)NC1=O (stereo partly drawn) [Compound 81] ([dHiv]A[dNMeF][Sar][Ile(3ξ)][Aib]; linker N-C via X10)	200 to 10000	–	–
C/C=C(\C)[C@H]1OC(=O)[C@@H](CCCCNC(=O)OC(C)(C)C)NC(=O)[C@H]([C@H](C)CC)NC(=O)CN(C)C(=O)[C@@H](Cc2ccccc2)N(C)C(=O)[C@H](C)NC(=O)[C@@H](CC(C)C)OC(=O)/C(C)=C/C[C@H](CCSC)[C@@H]1C [Compound 82]	< 20	20 to 200	–
C/C=C(\C)[C@H]1OC(=O)[C@@H](CCCCN)NC(=O)[C@H]([C@H](C)CC)NC(=O)CN(C)C(=O)[C@@H](Cc2ccccc2)N(C)C(=O)[C@H](C)NC(=O)[C@@H](CC(C)C)NC(=O)/C(C)=C/C[C@H](OCSC)[C@@H]1C [Compound 83] ([dL]A[dNMeF][Sar][aIle][dK]; linker N-C via X6)	> 10000	> 10000	–
C/C=C(\C)[C@H]1OC(=O)[C@@H](CCCCN)NC(=O)[C@H](C(C)CC)NC(=O)CN(C)C(=O)[C@@H](Cc2ccccc2)N(C)C(=O)[C@H](C)NC(=O)[C@@H](CC(C)C)OC(=O)/C(C)=C/C[C@H](O)[C@@H]1C (stereo partly drawn) [Compound 84]	200 to 10000	200 to 10000	–
C/C=C(\C)[C@H]1OC(=O)[C@@H](C)NC(=O)[C@H]([C@H](C)CC)NC(=O)CN(C)C(=O)[C@@H](Cc2ccc(Cl)cc2)N(C)C(=O)[C@H](CCCCNC(=O)c2ccc(C(C)=O)cc2)NC(=O)[C@@H](CC(C)C)OC(=O)/C(C)=C/CC[C@@H]1C [Compound 121]	200 to 10000	–	–
C/C=C(\C)[C@H]1OC(=O)[C@@H](C)NC(=O)[C@H]([C@H](C)CC)NC(=O)CN(C)C(=O)[C@@H](Cc2ccccc2)N(C)C(=O)[C@H](C)NC(=O)[C@@H](CC(C)C)OC(=O)/C(C)=C/C[C@H](OC(=O)NCCCOCCOCCOCCCNC(=O)c2ccc(/C(C)=N\NC(=O)CCCCCN3C(=O)C=CC3=O)cc2)[C@@H]1C [Compound L13]	–	–	20 to 200
